Source: patent publication US20250313653A1, “GUEST/HOST INCLUSION COMPLEXES CONTAINING S-NITROSOGLUTATHIONE AND METHODS OF USE THEREOF” (VIRGINIA COMMONWEALTH UNIVERSITY, priority 2022, published 2025)

Assays:
[1] = tested on: S. aureus; test: Agar diffusion assay for the hydrogel containing GSNO; format: cell-based; conditions: agar hydrogel on inoculated LB-agar plate, 24-h incubation at 37° C.
Experimental: Two grams of agar were dissolved in 100 mL of 0.1 M phosphate buffer at pH 7.4 at 80° C. for 3 h with stirring. GSNO solutions at 0.2 M with or without 0.2 M αCD in 0.1 M phosphate buffer at pH 7.4 were prepared separately. Then, 0.5 mL GSNO solution and 0.5 mL dissolved agar were mixed and put into an ice bath to facilitate gelation.
The overnight S. aureus culture was diluted to a density of 0.1 OD600 in PBS. Then, the diluted bacterial inoculum was uniformly spread on an LB-agar plate using a sterile cotton swab. The plate was marked as four separate portions. Forty μL of warm liquid agar with only buffer, GNSO, αCD, or GSNO-αCD (see section 2.5) was added onto a portion of the inoculated plate twice. The agar solution was gelated almost instantly due to the temperature decrease to form a small circular hydrogel area. The bacterial growth was visually examined after 24-h incubation at 37° C.

[2] = tested on: S. aureus; test: Prevention of intraluminal catheter infection (planktonic and biofilm); format: cell-based; conditions: 3-day experiments
Experimental: Both biofilm and planktonic bacteria were quantified to evaluate the antibacterial activities of the proposed method. LB medium (25 mg/mL) was used to culture all bacterial strains overnight before performing the antibacterial tests. Segments of medical-grade silicone tubes were all autoclaved. Lock solutions were freshly prepared using the sterilized buffer and filtered through a 0.22 m PES syringe filter. The biofilms on the silicone surface were dip-rinsed 5 times in PBS and detached by 1-min vertexing, 1-min sonication (20% power of a 150 W probe sonifier, Branson Ultrasonics), and another 1-min vertexing for plate counting. When quantifying the planktonic bacteria, the suspension was homogenized by 1-min vertexing. […] After plate incubation at 37° C. overnight, colony-forming units (CFU) of bacteria were counted and converted to CFU/cm^2 for biofilm quantification and CFU/mL for planktonic bacteria quantification. […] In our case, the limit of detection (LOD) is 400 CFU/cm^2 for biofilm quantification and 200 CFU/mL for quantification of planktonic bacteria. […] The statistical significance between groups was determined using a student's t-test.
The 0.1 M αCD, 0.1 M GSNO, and 0.1 M GSNO+0.1 M αCD solutions were prepared in LB broth buffered with 0.1 M Na2HPO4 and adjusted to pH 7.4. […] Viable biofilm and planktonic cells were evaluated by plate counting. […]

[3] = administrated in humans, dogs, and rats at appropriate doses; cited from earlier work
[4] = NO release from GSNO solutions (chemiluminescence NO analyzer); format: physicochemical; conditions: 3 mL of 0.1 M GSNO solution with or without an equal mole of αCD, 37° C.
Experimental: The NO release was quantified by an ECO PHYSICS NO analyzer (nCLD 66). […] of castor oil was added to NO release solutions as an antifoam agent when 3 mL GSNO or GSNO-CD solutions were tested in an amber glass cell at 37° C. Humidified air was vacuumed into the solution to carry NO continuously into the chemiluminescence detection chamber at a flow rate of 100 cm^3/min. The solutions were stored in sealed amber glass vials between measurements at 37° C. To monitor the NO release from catheters, solutions were filled into 2.5 cm-long medical-grade silicone tubes (HelixMark® 60-011-07, 1.58 mm ID, 2.41 mm OD) that were scaled on both ends with plastic rods. The filled tubes were placed into the amber glass cell containing 5 mL of 0.01 M PBS with 0.1 mM EDTA (PBSE) at 37° C. N2 was used as the carrier gas at a flow rate of 100 cm^3/min to introduce NO into the analyzer. Filled tubes were stored in 10 mL PBSE at 37° C. in the dark between measurements. The soaking PBSE solution was refreshed after each measurement.

[5] = tested on: fibroblast L929 cells; test: Cytotoxicity test (MTS assay) of lock-solution-filled silicone tubes; format: cell-based, mouse; conditions: 24-h incubation of L929 cells with silicone tubes filled with the lock solution
Experimental: L929 murine fibroblast cells were suspended in complete media (DMEM with 1% penicillin/streptomycin and 10% FBS) before being seeded in a 24-well plate at a concentration of 5×10^5 cells per well. After 24 h of incubation, the attached cells in each well were incubated in fresh media containing a sterilized 1-cm silicone tube (HelixMark® 60-011-07) filled with a lock solution with buffer, GSNO, or GSNO-αCD and with both ends sealed. MTS assays were performed following the manufacturer's procedure after an additional 24-h incubation. Absorbance at 490 nm was measured by a Cytation 3 imaging plate reader (Biotek).

[6] = GSNO photodecomposition under LED white light; format: physicochemical; conditions: presence of αCD, 4-h experiment under LED white light, room temperature
Experimental: Aqueous GSNO solutions were contained in 1.5 mL disposable polystyrene cuvettes. The cuvette was caped and further sealed with parafilm. The concentrations of GSNO during storage at 37° C. or 25° C. in the dark were monitored by a UV-vis spectrophotometer (Go Direct® Fluorescence/UV-VIS Spectrophotometer) at a wavelength of 545 nm. A 4 W LED white light was used as the light source for the photodecomposition experiment at room temperature. The distance between the light source and the cuvettes was approximately 10 cm. All GSNO decomposition experiments were triplicated, and the GSNO concentration was expressed as mean±standard deviation.

N[C@@H](CCC(=O)N[C@@H](CSN=O)C(=O)NCC(=O)O)C(=O)O [GSNO, S-nitrosoglutathione]
S. aureus growth on the hydrogel [1]: grows less bacteria | reduction of bacterial biofilm on silicone rubber [2]: 99.2% | reduction of growth of planktonic S. aureus compared to the phosphate buffer ([2]; 0.1 M GSNO without or with 0.1 M αCD, 37° C.): 5 orders of magnitude | toxicities in in vivo studies [3]: did not reveal any toxicities | duration of NO release [4]: 6 days | cytotoxicity / cell viability (MTS) [5]: no cytotoxicity | decrease in the decomposition rate of GSNO [6]: ~2 fold
